Assay results as given in patent US10947270B2, “Targeted prodrug cytosine deaminase fusion carrier and application thereof” (National Yang-Ming University, priority 2015, dated 2021).

Key:
[1] = test system: HUVEC, U87MG and MCF-7 cells; test: MTT cytotoxicity assay of yCD series, statements for all three cells; type: cell-based, human; conditions: 5-FC alone
Procedure: (§1) The cell viability was determined by MTT assay. The seeded HUVEC cells shown in FIG. 7A, the seeded U87MG cells shown in FIG. 7B and the 96 wells of seeded MCF-7 cells shown in FIG. 7C are respectively added with 500 nM RGD4C-yCD, yCD, RGD4C-yCD/UPRT and yCD/UPRT recombinant protein, after removing the recombinant protein not bound with the cells and washing the cells, add 5-FC with different concentrations and observe the cell killing effect. Cells of the control groups were only incubated with different concentrations of 5-FU or 5-FC without protein treatment.
(§2) In this experiment, the MTT assay is applied to measure cytotoxicity induced by RGD4C-yCD/5-FC and RGD4C-yCD/UPRT/5-FC of the targeted prodrug enzyme fusion protein. In 96-well plate of seeded cells is respectively added with recombinant proteins such as 500 nM RGD4C-yCD, yCD, RGD4C-yCD/UPRT and yCD/UPRT, and co-cultured at 37° C. for 2 hours. The recombinant proteins not bound with cells are discarded. The cells were washed, and then were treated with different concentrations of 5-FC for observing the effect of cytotoxicity. On the other hand, the cells only treated with different concentrations of 5-FC and 5-FU separately as the control group.

[2] = test system: U87MG, HUVEC and MCF-7 cells; test: MTT cytotoxic test of EcCD series, statements for several cells; type: cell-based, human; conditions: 5-FC alone
Procedure: (§3) Relative cell viability was measured by MTT assay. The 50 nM EcCD series fusion protein is applied to U87MG, HUVEC and MCF-7 cells at 37° C. for 2 hours, after washing the unbound protein with PBS.

HUVEC cells [3] = test: MTT cytotoxicity assay of yCD series protein combined with 5-FC; type: cell-based; conditions: Homo sapiens, 5-FU alone
Procedure: as §1, §2

U87MG cells [4] = test: as above; type: cell-based; conditions: Homo sapiens, U-87 MG, 5-FU alone
Procedure: as §1, §2

MCF-7 cells [5] = test: as above; type: cell-based, human
Procedure: as §1, §2

HUVEC and U87MG cells = test: TUNEL apoptosis assay of yCD series fusion protein combined with 5-FC; type: cell-based, human; conditions: 500 nM protein, 100 μM 5-FC or 5-FU, 72 hours
Procedure: FIGS. 9A-9D show the cell apoptosis assay of the yCD series fusion protein combined with 5-FC in HUVEC and U87MG cells. […] And then TUNEL assay kit was used to detect the cell apoptosis (red signal: DNA fragment detected by TUNEL assay kit; blue signal: Hoechst 33342 cell nuclear stain). Cells of the control groups were only incubated with different concentrations of 5-FU or 5-FC without protein treatment. […] (*P value<0.05; Calibration scale: 20 μm)
Previous literature pointed out that 5-FU can promote apoptosis by inhibiting the synthesis of cellular DNA. This experiment is performed on apoptosis analysis to evaluate whether the enzyme precursor treatment system of RGD4C-yCD/5-FC and RGD4C-yCD/UPRT/5-FC can kill the cells by apoptotic mechanism. HUVEC and U87MG cells are co-cultured with culture medium containing 500 nM RGD4C-yCD and RGD4C-yCD/UPRT protein for 2 hours at 37° C., remove and wash the unbound or endocytic proteins, add 100 μM 5-FC or 5-FU, after acting for 72 hours, the DNA fragment of the apoptosis is stained with fluorescence by TUNEL assay analysis set, and the apoptosis is observed by conjugated fluorescence microscope. […] Furtherly, TUNEL fluorescence signals are quantified by image analysis software MetaMorph. […]

MCF-7 cells [6] = test: MTT cytotoxic test of EcCD series fusion protein (50 nM) coupled with 5-FC; type: cell-based; conditions: Homo sapiens, MCF7, 5-FU alone, 72 hours
Procedure: as §3

U87MG cells [7] = test: as above; type: cell-based; conditions: Homo sapiens, U-87 MG, 5-FU alone, 72 hours
Procedure: as §3

HUVEC cells [8] = test: as above; type: cell-based, human; conditions: 5-FU alone
Procedure: as §3

SMILES	cytotoxic ability [1]	survival rate [2] [%]	IC50 (HUVEC cells [3]) [µM]	IC50 (U87MG cells [4]) [µM]	IC50 (MCF-7 cells [5]; 5-FU alone) [µM]	IC50 (MCF-7 cells [5]; Homo sapiens, MCF7, 5-FU alone) [µM]	apoptosis (TUNEL, words) (HUVEC and U87MG cells)	IC50 (MCF-7 cells [6]) [µM]	IC50 (U87MG cells [7]) [µM]	IC50 (HUVEC cells [8]; 72 hours) [µM]	IC50 (HUVEC cells [8]; Homo sapiens, 72 h) [µM]
Nc1nc(=O)[nH]cc1F [5-FC, 5-fluorocytosine]	not significant cytotoxic ability	~100	–	–	–	–	–	–	–	–	–
O=c1[nH]cc(F)c(=O)[nH]1 [5-FU, 5-fluorouracil]	–	–	1.6 ± 0.2	1.6 ± 0.3	2.2 ± 0.3	2.1 ± 0.3	a large amount of apoptosis	25.6 ± 0.3	6.5 ± 0.2	6.2 ± 1.3	6.5 ± 1.3
